Experimental data as given in patent publication US5935829A, “Mutation assays involving blood cells that metabolize toxic substances” (priority 1992, dated 1999).
Like-named read-outs stand apart in the source and are kept apart here.

Assays:
in vitro = settings: human, ahh-1 cells, RELATIVE SURVIVAL; for viability at 48 h, 5000 µM: 5 mM × 48 hours; for viability at 48 h, 14000 µM: 14 mM × 48 hours; for viability at 48 h, 28000 µM: 28 mM × 48 hours; for viability at 48 h, 25 µM: 25 μM × 48 hours; for viability at 48 h, 50 µM: 50 μM × 48 hours; for viability at 48 h, 100 µM: 100 μM × 48 hours
[1] = test system: AHH activity of AHH-1 cells; format: cell-based, human
Procedure: The quantity of 3-hydroxy BaP was measured by fluorescent intensity activated by a light wavelength of 396 nm and measured at 522 nm using a spectrofluorimeter (Farrand Model Mk-1, Valhalla, N.Y.).
After growth of the cells in culture medium with gentamycin and kanamycin, the cells were plated in microtiter plates at a density of about 0.2 cells per well. Colonies were isolated and characterized for BaP-induced growth inhibition. A total of 47 colonies were isolated and contacted with 40 uM BaP. In its normal state, BaP is not highly cytotoxic or mutagenic; however, if metabolized by oxidative activity into one or more epoxides or phenols, the metabolites tend to be toxic and mutagenic.
6-TG resistant clones were characterized for AHH activity by measuring the rate of production of 3-OH benzopyrene, a fluorescent metabolite of BaP which is created by AHH activity.

[2] = 1 μM × 48 hours, induction CEPE
[3] = 3 μM × 48 hours, induction CEPE
[4] = 10 μM × 48 hours, induction CEPE
[5] = 25 μM × 4.8 hours, induction CEPE

## CN(C)N=O [DMN, dimethylnitrosamine]
AHH-1 cells; 5 mM × 48 hours, induction BNF
  MUTANT FRACTION × 10^6, MEAN ± STD.DEV.: 4.0 ± 0.7 × 10^6
AHH-1 cells; 5 mM × 48 hours, induction none
  MUTANT FRACTION × 10^6, MEAN ± STD.DEV.: 3.5 ± 0.7 × 10^6
AHH-1 cells; 14 mM × 48 hours, induction BNF
  MUTANT FRACTION × 10^6, MEAN ± STD.DEV.: 8.0 ± 2.0 × 10^6
AHH-1 cells; 14 mM × 48 hours, induction none
  MUTANT FRACTION × 10^6, MEAN ± STD.DEV.: 3.5 ± 0.7 × 10^6
AHH-1 cells; 28 mM × 48 hours, induction BNF
  MUTANT FRACTION × 10^6, MEAN ± STD.DEV.: 8.6 ± 2.1 × 10^6
AHH-1 cells; 28 mM × 48 hours, induction none
  MUTANT FRACTION × 10^6, MEAN ± STD.DEV.: 4.1 ± 1.3 × 10^6
In vitro; induction BNF
  viability at 48 h, 5000 µM: 112%
  viability at 48 h, 14000 µM: 100%
  viability at 48 h, 28000 µM: 87%
In vitro; induction none
  viability at 48 h, 5000 µM: 98%
  viability at 48 h, 14000 µM: 92%
  viability at 48 h, 28000 µM: 81%

## CCOS(C)(=O)=O [EMS, ethyl methanesulfonate]
AHH-1 cells; 59 μM × 24 hours
  MUTANT FRACTION × 10^6, MEAN ± STD.DEV.: 6.3 ± 1.3 × 10^6
AHH-1 cells; 100 μM × 24 hours
  MUTANT FRACTION × 10^6, MEAN ± STD.DEV.: 20 ± 5 × 10^6
In vitro; 59 μM × 24 hours
  viability at 24 h, 59 µM: 48%
In vitro; 100 μM × 24 hours
  viability at 24 h, 100 µM: 36%

## Cc1cccc2c1ccc1ccccc12 [1MP, 1-methylphenanthrene]
AHH-1 cells; 25 μM × 48 hours, induction BNF
  MUTANT FRACTION × 10^6, MEAN ± STD.DEV.: 3.6 ± 1.2 × 10^6
AHH-1 cells; 25 μM × 48 hours, induction none
  MUTANT FRACTION × 10^6, MEAN ± STD.DEV.: 4.4 ± 1.2 × 10^6
AHH-1 cells; 50 μM × 48 hours, induction BNF
  MUTANT FRACTION × 10^6, MEAN ± STD.DEV.: 8.9 ± 1.5 × 10^6
AHH-1 cells; 50 μM × 48 hours, induction none
  MUTANT FRACTION × 10^6, MEAN ± STD.DEV.: 4.1 ± 1.2 × 10^6
AHH-1 cells; 100 μM × 48 hours, induction BNF
  MUTANT FRACTION × 10^6, MEAN ± STD.DEV.: 7.8 ± 1.4 × 10^6
AHH-1 cells; 100 μM × 48 hours, induction none
  MUTANT FRACTION × 10^6, MEAN ± STD.DEV.: 7.8 ± 1.1 × 10^6
In vitro; induction BNF
  viability at 48 h, 25 µM: 47%
  viability at 48 h, 50 µM: 35%
  viability at 48 h, 100 µM: 29%
In vitro; induction none
  viability at 48 h, 25 µM: 54%
  viability at 48 h, 50 µM: 38%
  viability at 48 h, 100 µM: 31%

## C1=Cc2cc3cccc4ccc5ccc1c2c5c43 [CEPE, cyclopenteno(c,d)pyrene]
[1]
  induction of AHH activity: inducers
AHH-1 cells; [2]
  MUTANT FRACTION × 10^6, MEAN ± STD.DEV.: 71 ± 6 × 10^6
AHH-1 cells; [3]
  MUTANT FRACTION × 10^6, MEAN ± STD.DEV.: 78 ± 9 × 10^6
AHH-1 cells; [4]
  MUTANT FRACTION × 10^6, MEAN ± STD.DEV.: 22 ± 2 × 10^6
AHH-1 cells; [5]
  MUTANT FRACTION × 10^6, MEAN ± STD.DEV.: 34 ± 4 × 10^6
AHH-1 cells; 25 μM × 48 hours, induction CEPE & BNF
  MUTANT FRACTION × 10^6, MEAN ± STD.DEV.: 74 ± 7 × 10^6
AHH-1 cells; 50 μM × 48 hours, induction CEPE & BNF
  MUTANT FRACTION × 10^6, MEAN ± STD.DEV.: 64 ± 7 × 10^6
In vitro; [2]
  viability at 48 h, 1 µM: 61%
In vitro; [3]
  viability at 48 h, 3 µM: 63%
In vitro; [4]
  viability at 48 h, 10 µM: 59%
In vitro; [5]
  viability at 4.8 h, 25 µM: 54%
In vitro; induction CEPE & BNF
  viability at 48 h, 25 µM: 34%
  viability at 48 h, 50 µM: 27%
